Results from patent publication US8642284B1, “Methods for identifying agents that alter NAD-dependent deacetylation activity of a SIR2 protein” (Massachusetts Institute of Technology, priority 1999, dated 2014).
“Also recorded” adds a separate entry of the source.

Assays:
Sir2p = target: T1, Sir2p (Saccharomyces cerevisiae, UniProt P06700); test: NAD-dependent deacetylation of di-acetylated H3 peptide by recombinant yeast Sir2p (HPLC); type: biochemical; conditions: for function in the deacetylation of the H3 peptide by Sir2p: 1 mM NAD derivative; for inhibition of the deacetylase activity in a reaction with NAD: not shown
T1 construct: purified recombinant yeast (rSir2p) protein, mouse Sir2 (mSir2α) proteins and vector controls; 6×His; made in house; host or cells: E. coli BL21 (DE3), pET28a
Protocol: (§1) The typical reaction of Sir2 deacetylase activity was performed in 50 μl of buffer containing 50 mM Tris-HCl [pH 9.0], 4 mM MgCl2, 0.2 mM DTT, variable concentration of cold nicotinamide adenine dinucleotide (NAD) or NAD derivatives (SIGMA®, MO), 5-10 μg of the purified recombinant Sir2 proteins, and 10 μg of the histone H3 N-terminal tail peptide (amino acid 1-20) di-acetylated at positions 9 and 14 (Upstate Biotechnology™, NY). […] To detect the ADP-ribosylation activity, 8 μCi of NAD 5′-[α-^32P]triphosphate (˜1000 Ci/mmol, Amersham Pharmacia Biotech™, NJ) was added to the same reaction containing 1 μM cold NAD. Histone H3 protein (4 μg) (Roche Molecular Biochemicals™, IN) were used for this assay. All reaction mixtures were incubated at room temperature for 1 hr. Trichostatin A and coumermycin A1 (SIGMA™) were prepared in dimethylsulfoxide (DMSO, SIGMA®), and 5 μl of solvent or inhibitor was added to the reactions prior to adding Sir2 proteins.
(§2) After the incubation, the products were precipitated at −20° C. overnight by adding 50 μl of distilled water and 25 μl of 100% trichloroacetic acid (TCA) solution. For high pressure liquid chromatography (HPLC), the precipitates were reconstituted in 5% CH3CN and 0.1% trifluoroacetic acid (TFA) and run in the gradient concentration between 0.05% TFA and 0.043% TFA plus 80% CH3CN on Hewlett Packard Model 1100 HPLC system with 214TP52 column (VYDAC, CA). The chromatograms at the absorbance of 210 nm were digitally recorded and analyzed by Hewlett Packard ChemStation™ system (version A.06.03 [509]). Fractions of samples were collected every 1 min by Gilson™ Fraction Collector Model 203. Peptide sequencing was done by the Applied Biosystems PROCISE® 494 HT protein sequencing system. PTH amino acid chromatograms were recorded and analyzed by the ABI Model 610A2.1 data integration/analysis system.
The experiments employed purified recombinant Sir2p in a reaction with NAD and a peptide of the histone H3 amino-terminal tail (residues 1-20) di-acetylated at lysines 9 and 14. These lysines are hypoacetylated in silenced chromatin and mutations at these positions to glycine greatly reduce silencing in vivo (Thompson, J. S., et al., Nature 369: 245-247 (1994)). The products of a reaction containing 5 μg of recombinant yeast Sir2p (79 pmoles) (FIG. 8a), 10 μg of the H3 peptide (4.2 nmoles) increasing concentrations of NAD were analyzed s by high pressure liquid chromatography (HPLC).

[1] = system: di-acetylated H3 peptide (residues 1-20 acetylated on Lys9 and Lys14); test: deacetylase activity of recombinant Sir2p and Sir2p core domain mutants on H3 peptide; type: biochemical; conditions: for NAD-dependent histone H3 deacetylase activity, of wild type activity: 5 μg recombinant protein
Protocol: as §1, §2
(§3) BL21 with SIR2 or the sir2 mutants subcloned into pET28a (NOVAGEN®) were induced with 1 mM IPTG for 1 hr. The recombinant proteins were purified by Nickel-NTA column under native condition. Ribosylation and deacetylation assays were performed using 1 μg of recombinant protein for the ribosylation assay and 5 μg for the deacetylation assay.
A set of mutations in highly conserved residues of the core domain of SIR2 were constructed by site-directed mutagenesis (FIG. 17a) and cloned into vectors, along with the wild type, to allow expression of the recombinant proteins in E. coli or expression of single-copy genes from the native SIR2 promoter in S. cerevisiae. These 6×his (SEQ ID NO: 39) tagged proteins were purified from E. coli by a Ni-NTA column (FIG. 17b) and analyzed for the NAD-dependent histone H3 deacetylase activity in an assay with a di-acetylated H3 peptide (residues 1-20 acetylated on Lys9 and Lys14) and 1 mM NAD. HPLC separation of the reaction products yields five peaks of which 1, 2, a portion of 3 and 4 are deacetylated species of peptide (FIG. 15).

histone H3 = test: ADP-ribosyltransferase activity of Sir2p core domain mutants; type: biochemical; conditions: histone H3 substrate; relative to wild type
Protocol: as §1
Electron-spray mass spectroscopy (also referred to herein as mass spectroscopy) was done on the PE Sciex Model API365™ system. Matrix assisted laser desorption/ionization (MALDI) mass spectroscopy can also be used. The electron-spray mass spectroscopy data were analyzed by the BioMultiView Program™ (version 1.3.1). To detect the ADP-ribosylated intact H3 protein, the pellets were dissolved in 15 μl of Leammli sample buffer, boiled for 1.5 min and electrophoresed in a 10-20% gradient SDS-PAGE gel. The gel was stained with Coomassie Brilliant Blue to check equal loading of histones, dried, and exposed to KODAK® X-OMAT film. To analyze the ADP-ribosylated H3 peptides, 10 μl of each reaction mixture was spotted on a cellulose TLC plate (EM Science™, NJ). The chromatography was performed for 9-10 hrs in a TLC chamber containing the 65:5:3:2:29 mixture of isobutyric acid, pyridine, acetic acid, butanol and water (Scheidtmann, K. H., et al., J. Virol. 44:116-133 (1982)). The plate was dried and exposed to KODAK® X-OMAT film. The peptide spots were checked by ninhydrin staining.
as §3
The Sir 2 mutant proteins were also analyzed for ADP-ribosyltransferase activity using the histone H3 substrate, (FIG. 17c). […] The same pattern of activities was observed using a peptide of the N-terminal tail of histone H3 (not shown).

mSir2α = target: T2, mSir2α (Mus musculus, UniProt Q923E4); test: ADP-ribosylation assay, sensitivity of mSir2α to poly- and mono-ADP-ribosylation inhibitors (histone H2B, 32P-NAD); type: biochemical; conditions: for inhibition of the ADP-ribosylation activity of the mSir2α protein: 40, 200 and 1000 μM
T2 construct: ADP-ribosylase activity of bacterial recombinant full-length proteins of ySir2p and mSir2α was determined in in vitro assays; 6×His; made in house; host or cells: E. coli BL21 (DE3) pLysS with an extra copy of arginine tRNA gene, pET28a
T2 sequence (Q923E4 1-737): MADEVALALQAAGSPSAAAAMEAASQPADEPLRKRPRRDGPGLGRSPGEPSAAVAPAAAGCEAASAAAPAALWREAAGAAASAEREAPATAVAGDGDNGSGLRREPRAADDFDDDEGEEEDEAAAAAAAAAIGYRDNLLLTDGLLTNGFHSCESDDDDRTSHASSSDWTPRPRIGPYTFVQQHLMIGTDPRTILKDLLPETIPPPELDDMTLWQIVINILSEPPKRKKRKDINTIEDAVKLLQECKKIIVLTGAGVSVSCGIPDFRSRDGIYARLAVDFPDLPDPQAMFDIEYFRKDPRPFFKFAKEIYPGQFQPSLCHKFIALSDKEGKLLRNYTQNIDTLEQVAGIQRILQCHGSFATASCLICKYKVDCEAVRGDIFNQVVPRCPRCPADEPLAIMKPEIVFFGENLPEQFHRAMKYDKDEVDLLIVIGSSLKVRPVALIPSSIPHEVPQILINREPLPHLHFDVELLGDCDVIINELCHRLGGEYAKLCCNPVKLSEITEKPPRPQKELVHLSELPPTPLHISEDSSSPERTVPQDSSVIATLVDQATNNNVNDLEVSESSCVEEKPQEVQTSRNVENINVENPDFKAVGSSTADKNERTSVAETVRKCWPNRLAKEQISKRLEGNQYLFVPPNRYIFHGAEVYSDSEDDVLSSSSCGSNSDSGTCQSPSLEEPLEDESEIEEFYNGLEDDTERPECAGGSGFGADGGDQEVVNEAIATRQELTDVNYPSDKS
Protocol: The typical reaction was performed in 50 or 100 μl of the buffer containing 5 mM Tris-HCl [pH8.0 or 9.0], 4 mM MgCl2, 0.2 mM DTT, 1 μM cold β-NAD^+ (SIGMA®) and 8 μCi nicotinamide adenine dinucleotide 5′[α-^32P]triphosphate (NAD) as a donor of ADP-ribose (˜1000 Ci/mmol, Amersham Pharmacia Biotech). To check the sensitivity to poly- or mono-ADP-ribosylation inhibitors, 3-aminobenzamide (ICN Pharmaceuticals, CA), benzamide, novobiocin and coumermycin A1 (SIGMA®) were added to the reactions prior to adding Sir2 proteins, respectively. The wild type or mutant recombinant proteins (0.5-1 μg for ySir2p and 10 μg of mSir2α) were added with 4 μg of each histone purchased from Roche Molecular Biochemicals (Indianapolis, Ind.). For the peptide experiments, 5-10 μg of unacetylated or acetylated N-terminal tail peptides (amino acids 1-20) of H3 and H4 purchased from Upstate Biotechnology™ (Lake Placid, N.Y.) were used as substrates of the yeast and mouse Sir2 recombinant proteins.
To analyze histone modification, 25 μl of 100% trichloroacetic acid (TCA) solution was mixed to the reaction mixture and left on ice for 15 min. The protein precipitates were centrifuged at 4° C. and washed with 5 or 20% TCA solution twice. The pellets were dissolved in 15 μl of Leammli's sample buffer and boiled for 1.5 min. The proteins were electrophoresed in a 10-20% gradient SDS-PAGE gel. The gel was stained with COOMASSIE® Brilliant Blue R-250 (GibcoBRL Life Technologies™, Frederick, Md.) to check equal loading of histones, dried, and exposed to KODAK® X-OMAT film.
The sensitivity of the ADP-ribosylase activity of mSir2α to poly ADP-ribosylation inhibitors (3-aminobenzamide and benzamide) and mono-ADP-ribosylation inhibitors (novobiocin and coumermycin A1) was evaluated. (FIG. 4F).

[2] = system: mono-ADP-ribosyltransferases; conditions: literature value; read-out: reported IC50 concentration; cited from earlier work

T1 sequence (P06700 whole entry): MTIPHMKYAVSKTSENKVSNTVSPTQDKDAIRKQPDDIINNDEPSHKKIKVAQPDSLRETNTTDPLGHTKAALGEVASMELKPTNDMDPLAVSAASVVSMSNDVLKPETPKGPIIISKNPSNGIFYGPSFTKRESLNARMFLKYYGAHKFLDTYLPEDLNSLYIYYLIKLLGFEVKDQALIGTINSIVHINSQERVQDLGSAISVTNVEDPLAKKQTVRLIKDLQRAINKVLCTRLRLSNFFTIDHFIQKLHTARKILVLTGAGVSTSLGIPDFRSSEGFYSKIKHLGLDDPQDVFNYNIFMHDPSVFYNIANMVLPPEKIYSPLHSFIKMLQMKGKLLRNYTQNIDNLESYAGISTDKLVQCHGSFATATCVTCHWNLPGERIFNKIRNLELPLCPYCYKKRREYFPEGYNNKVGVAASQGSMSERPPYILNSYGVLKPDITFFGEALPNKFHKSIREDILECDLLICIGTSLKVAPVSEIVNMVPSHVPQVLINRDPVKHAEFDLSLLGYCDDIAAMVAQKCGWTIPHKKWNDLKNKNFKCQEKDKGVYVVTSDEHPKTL

Row | Molecule | NAD-dependent histone H3 deacetylase activity, of wild type activity ([1]; 1 mM NAD) | ADP-ribosyltransferase activity (histone H3) | further results
1 | NC(=O)C1=CN([C@@H]2O[C@H](COP(=O)(O)OP(=O)(O)OC[C@H]3O[C@@H](n4cnc5c(N)ncnc54)[C@H](O)[C@@H]3O)[C@@H](O)[C@H]2O)C=CC1 [NADH] | – | – | function in the deacetylation of the H3 peptide by Sir2p (Sir2p): functioned weakly; inhibition of the deacetylase activity in a reaction with NAD (Sir2p): neither NADH nor NADP significantly inhibited
2 | CC(/C=C/C(=O)NO)=C\[C@@H](C)C(=O)c1ccc(N(C)C)cc1 [TSA, trichostatin A] | – | – | inhibition of deacetylation by Sir2p (Sir2p; 400 nM): does not affect; also recorded: totally incapable of inhibiting
3 | mutant 345: 6×His tagged yeast Sir2p core domain mutant, Asn-345 mutated to alanine | inactive | completely inactive | –
4 | mutant 261: 6×His tagged yeast Sir2p core domain mutant, Thr-261 mutated to alanine | 17% | 4% | –
5 | NC(=O)c1cccc(N)c1 [3-aminobenzamide] | – | – | inhibition of the ADP-ribosylation activity of the mSir2α protein (mSir2α): did not inhibit
6 | CO[C@@H]1[C@@H](OC(N)=O)[C@@H](O)[C@H](Oc2ccc3c(O)c(NC(=O)c4ccc(O)c(CC=C(C)C)c4)c(=O)oc3c2C)OC1(C)C [novobiocin] | – | – | inhibition of ADP-ribosylation by mSir2α (mSir2α; 200 μM): strongly inhibited; IC50 [2]: 370 µM
7 | NC(=O)c1ccc[n+]([C@@H]2O[C@H](COP(=O)([O-])OP(=O)(O)OC[C@H]3O[C@@H](n4cnc5c(N)ncnc54)[C@H](OP(=O)(O)O)[C@@H]3O)[C@@H](O)[C@H]2O)c1 [NADP] | – | – | function in the deacetylation of the H3 peptide by Sir2p (Sir2p): did not function significantly; inhibition of the deacetylase activity in a reaction with NAD (Sir2p): neither NADH nor NADP significantly inhibited
8 | mutant 347: 6×His tagged yeast Sir2p core domain mutant, Asp-347 mutated to alanine | inactive | completely inactive | –
9 | mutant 271: 6×His tagged yeast Sir2p core domain mutant, Iso-271 mutated to alanine | 36% | 8% | –
10 | NC(=O)C1=CN([C@@H]2O[C@H](COP(=O)(O)OP(=O)(O)OC[C@H]3O[C@@H](n4cnc5c(N)ncnc54)[C@H](OP(=O)(O)O)[C@@H]3O)[C@@H](O)[C@H]2O)C=CC1 [NADPH] | – | – | function in the deacetylation of the H3 peptide by Sir2p (Sir2p): did not function significantly
11 | mutant 275: 6×His tagged yeast Sir2p core domain mutant, Arg-275 mutated to alanine | 67% | about as active as wild type | –
12 | Sir2p: purified recombinant 6×His-tagged yeast Sir2 protein | – | – | input peptide deacetylated ([1]; areas under HPLC peaks 1, 2 and 4, 1 mM NAD): at least 27%; acetyl lysines at positions 9 and 14 deacetylated ([1]; peak 4, Edmann degradation, in the presence of NAD): 23-27%
13 | mutant 270: 6×His tagged yeast Sir2p core domain mutant, Gly-270 mutated to alanine | 80% | 7% | –
14 | NC(=O)c1ccccc1 [benzamide] | – | – | inhibition of the ADP-ribosylation activity of the mSir2α protein (mSir2α): did not inhibit
